Article PMC9862111, “Isolation of the Lanostane Triterpenes Pholiols L–S from Pholiota populnea and Evaluation of Their Antiproliferative and Cytotoxic Activities” (Pharmaceuticals, 2023)

Columns and labels:
MCF-7 [1] = system: MCF-7
Protocol: (§2) Cell Line Cultures: The human colon adenocarcinoma cell lines, Colo 205 (ATCC-CCL-222) doxorubicin-sensitive parent and Colo320/MDR-LRP (ATCC-CCL-220.1) doxorubicin resistant expressing ABCB1, were purchased from LGC Promochem (Teddington, UK). The cells were cultured in RPMI-1640 medium supplemented with 10% heat-inactivated fetal bovine serum (FBS), 2 mM L-glutamine, 1 mM Na-pyruvate, 100 mM HEPES. The MRC-5 (ATCC CCL-171) human embryonic lung fibroblast cell line and the hormone-responsive breast cancer cell line MCF-7 (ATCC HTB-22) were purchased from Sigma-Aldrich (Merck KGaA, Darmstadt, Germany). The MCF-7 and MRC-5 cells were cultured in Eagle’s Minimal Essential Medium (EMEM) containing 4.5 g/L of glucose and supplemented with a non-essential amino acid mixture, a selection of vitamins, and 10% FBS. The cell lines were incubated at 37 °C, 5% CO2, and 95% air atmosphere. The cells were detached with Trypsin-Versene (EDTA) solution for 5 min at 37 °C. The human non-small cell lung cancer cell line A549 was kindly provided by Brigitte Marian (Institute of Cancer Research, Department of Medicine I, Medical University of Vienna, Austria). A549 cells were grown in Eagle’s Minimal Essential Medium (EMEM) supplemented with 10% heat-inactivated fetal bovine serum.
(§3) Assay for Cytotoxic Effect: The effects of increasing concentrations of the compounds on cell growth were tested in 96-well flat-bottomed microtiter plates, as described for the antiproliferative assay, using 1 × 10^4 cells/well. The culture plates were incubated at 37 °C for 24 h; at the end of the incubation period, 20 μL of MTT solution (from a 5 mg/mL stock solution) was added to each well. After incubation at 37 °C for 4 h, 100 μL of sodium dodecyl sulfate (SDS) solution (10% SDS in 0.01 M HCl) was added to each well, and the plates were further incubated at 37 °C overnight. Cell growth was determined by measuring the optical density (OD) at 540 nm (ref 630 nm) with a Multiscan EX ELISA reader (Thermo Labsystems, Cheshire, WA, USA).
(§4) Sample preparation: The compounds were dissolved in DMSO to achieve the final concentration of 5 mM. The starting concentration of the compounds was 100 µM and 2-fold serial dilutions were prepared for the antiproliferative and cytotoxic assays. The following concentrations were used: 100-50-25-12.5-6.25-3.125-1.56-0.78-0.39-0.195 µM.

MCF-7 [2] = experiment: Cytotoxic MTT assay, 24 h; details: Homo sapiens, MCF7, 24 h, read-out: Cytotoxic activity IC50 MCF-7 Mean
Protocol: as §2, §3, §4

A549 [3] = experiment: Cytotoxic MTT assay, 24 h; details: Homo sapiens, A549, 24 h, read-out: Cytotoxic activity IC50 A549 Mean
Protocol: as §2, §3, §4

in vitro = details: human
Protocol: as §2, §3, §4

Colo 320 [4] = experiment: Cytotoxic MTT assay, 24 h; details: for IC50: Homo sapiens, COLO 320, 24 h, read-out: Cytotoxic activity IC50 Colo 320 (B) Mean; for RR (relative resistance ratio) (B/A): IC50 resistant (Colo 320)/IC50 sensitive (Colo 205), cytotoxic assay
Protocol: as §2, §3, §4

Colo 205 [5] = experiment: Cytotoxic MTT assay, 24 h; details: Homo sapiens, COLO 205, 24 h, read-out: Cytotoxic activity IC50 Colo 205 (A) Mean
Protocol: as §2, §3, §4

MCF-7 [6] = experiment: Antiproliferative MTT assay, 72 h; assay type: cell-based, human; details: for IC50: Homo sapiens, MCF7, MTT, 72 h, 6 × 10^3 cells/well, breast cancer; for Selectivity index (SI), MCF-7: antiproliferative assay, MCF-7 versus non-cancerous MRC-5
Protocol: (§1) Antiproliferative Assays: The antiproliferative effect of the compounds was tested in decreasing serial dilutions of compounds (starting with 100 µM, then two-fold serial dilution) on human cell lines (Colo 205, Colo 320, MCF-7, A549, and MRC-5) in 96-well flat-bottomed microtiter plates. Firstly, the compounds were diluted in 100 µL of the medium, and then, 6 × 10^3 cells (Colo 205, Colo 320) in 100 µL of RPMI medium were added to each well, excluding the medium control wells. The adherent MCF-7, A549, and MRC-5 cells (6 × 10^3 cells/well) were seeded in EMEM medium for at least 4 h before the assay. The two-fold serial dilutions of the compounds were made in a separate plate (100–0.19 μM) and then transferred to the plates containing the adherent-corresponding cell line. […] The percentage of inhibition of cell growth was determined according to Equation (1), and expressed as IC50 values, defined as the concentration that induces 50% growth inhibition. IC50 values and the standard deviation (SD) of triplicate experiments were calculated using GraphPad Prism 5 software for Windows. Doxorubicin (2 mg/mL, Teva Pharmaceuticals, Budapest, Hungary) was used as a positive control and the vehicle DMSO as the negative control (Table 3). (1) […][ODsample−ODmedium control/ODcell control−ODmedium control]×100

Colo 205 [7] = experiment: Antiproliferative MTT assay, 72 h; assay type: cell-based, human; details: for IC50: MTT, 72 h, 6 × 10^3 cells/well, sensitive colon adenocarcinoma; for Selectivity index (SI), Colo 205: antiproliferative assay, Colo 205 versus non-cancerous MRC-5
Protocol: as §1

Colo 320 [8] = experiment: Antiproliferative MTT assay, 72 h; assay type: cell-based; details: Homo sapiens, 6 × 10^3 cells/well, resistant colon adenocarcinoma
Protocol: as §1

MRC-5 = experiment: Antiproliferative MTT assay, 72 h; assay type: cell-based; details: Homo sapiens, MRC5, 6 × 10^3 cells/well, normal embryonic lung fibroblast
Protocol: as §1

A549 [9] = experiment: Antiproliferative MTT assay, 72 h; assay type: cell-based; details: Homo sapiens, 6 × 10^3 cells/well, non-small cell lung cancer
Protocol: as §1

[10] = Cytotoxic MTT assay, 24 h; details: human, MRC-5 embryonic lung fibroblast cells
Protocol: as §2, §3, §4

treated cancer cells = experiment: Antiproliferative MTT assay, summary over cancer cell lines; assay type: cell-based, human; details: versus MRC-5
Protocol: as §1

[11] = system: p-glycoprotein (ABCB1) efflux pump; design: method as in PMID 35293752; details: resistant Colo 320 cells; cited from earlier work
Colo 320 cells = system: Colo 320 cells; design: method as in PMID 35293752; details: checkerboard method; cited from earlier work
[12] = system: sensitive (Colo 205) colon adenocarcinoma cells; design: method as in PMID 35293752; details: read-out: Cytotoxic activity IC50 Colo 205; cited from earlier work
[13] = system: resistant colon adenocarcinoma cells (Colo 320); design: method as in PMID 35293752; details: read-out: Cytotoxic activity IC50 Colo 320; cited from earlier work
5-LOX = system: 5-LOX; design: method as in PMID 36279964; details: read-out: IC50 against 5-LOX; cited from earlier work
COX-2 = system: COX-2; design: method as in PMID 36279964; details: read-out: IC50 against COX-2; cited from earlier work

COC(=O)C[C@@](C)(O)CC(=O)O[C@@H]1C[C@]2(C)C3=C(C(=O)C[C@H]2C(C)(C)[C@H]1OC(C)=O)[C@]1(C)CC[C@H]([C@H](C)CCC(=O)C(C)(C)O)[C@@]1(C)CC3=O [Compound 4, pholiol O]
Cytotoxic activity IC50 MCF-7 Mean (MCF-7 [1]): did not show a cytotoxic effect
IC50 (MCF-7 [2]): > 100 µM
IC50 (A549 [3]): 56.9 µM
IC50 at 24 h (in vitro): 58 µM
IC50 (Colo 320 [4]): 91.5 µM
RR (relative resistance ratio) (B/A) (Colo 320 [4]): 2.90
IC50 (Colo 205 [5]): 31.5 µM
IC50 (MCF-7 [6]): 9.95 µM
Selectivity index (SI), MCF-7 (MCF-7 [6]): 4.3
IC50 (Colo 205 [7]; Homo sapiens, COLO 205, 72 h): 23.3 µM
IC50 (Colo 205 [7]): 23.4 µM
Selectivity index (SI), Colo 205 (Colo 205 [7]): 1.8
IC50 (Colo 320 [8]): 42.1 µM
IC50 (MRC-5): 42.9 µM
IC50 (A549 [9]): 51.5 µM

COc1cccc2c1C(=O)c1c(O)c3c(c(O)c1C2=O)C[C@@](O)(C(=O)CO)C[C@@H]3O[C@H]1C[C@H](N)[C@H](O)[C@H](C)O1 [Dox, doxorubicin, reference compound]
IC50 (MCF-7 [2]): 5.73 µM
IC50 (A549 [3]): 10.2 µM
IC50 at 24 h [10]: 3.6 µM
IC50 (Colo 320 [4]): 12 µM
RR (relative resistance ratio) (B/A) (Colo 320 [4]): 3.60
IC50 (Colo 205 [5]): 3.32 µM
IC50 (MCF-7 [6]): 0.155 µM
IC50 (Colo 205 [7]; Homo sapiens, COLO 205, 72 h): 0.0617 µM
IC50 (Colo 320 [8]): 0.25 µM
IC50 (MRC-5): 0.52 µM
IC50 (A549 [9]): 1.04 µM

COC(=O)CC(C)(O)CC(=O)OC1C(O)CC2(C)C3=C(C(=O)CC2C1(C)C)C1(C)CCC(C(C)CCC(=O)C(C)(C)O)C1(C)CC3 (stereo not drawn) [Compound 1, pholiol L]
IC50 (MCF-7 [2]): 43.7 µM
IC50 (A549 [3]): 93.6 µM
IC50 at 24 h (in vitro): 66.1 µM
IC50 (Colo 320 [4]): 33.9 µM
RR (relative resistance ratio) (B/A) (Colo 320 [4]): 0.84
IC50 (Colo 205 [5]): 40.3 µM
Selectivity to cancerous cell lines over normal cells (treated cancer cells): did not display selectivity
IC50 (MCF-7 [6]): 21.7 µM
IC50 (Colo 205 [7]; Homo sapiens, COLO 205, 72 h): 32.4 µM
IC50 (Colo 320 [8]): 28.1 µM
IC50 (MRC-5): 70.9 µM
IC50 (A549 [9]): 53.7 µM

CC(=O)O[C@H]1[C@H](OC(=O)C[C@](C)(O)CC(=O)O)C[C@]2(C)C3=CC[C@]4(C)[C@@H]([C@H](C)CCC(=O)C(C)(C)O)CC[C@@]4(C)C3=CC[C@H]2C1(C)C [Compound 6, pholiol Q]
IC50 (MCF-7 [2]): 43.8 µM
IC50 (A549 [3]): 85.9 µM
IC50 at 24 h (in vitro): > 100 µM
IC50 (Colo 320 [4]): 34.7 µM
RR (relative resistance ratio) (B/A) (Colo 320 [4]): 0.62
IC50 (Colo 205 [5]): 56.1 µM
Selectivity to cancerous cell lines over normal cells (treated cancer cells): did not display selectivity
IC50 (MCF-7 [6]): 46.3 µM
IC50 (Colo 205 [7]; Homo sapiens, COLO 205, 72 h): 50 µM
IC50 (Colo 320 [8]): 69.2 µM
IC50 (MRC-5): > 100 µM
IC50 (A549 [9]): 51.2 µM

COC(=O)C[C@@](C)(O)CC(=O)O[C@@H]1C[C@]2(C)C3=C(C(=O)C[C@H]2C(C)(C)[C@H]1OC(C)=O)[C@]1(C)CC[C@H]([C@H](C)CCC(=O)C(C)(C)O)[C@@]1(C)CC3 [pholiol B]
p-glycoprotein (ABCB1) efflux pump inhibitory activity [11]: inhibitory activity was found
Drug interaction with doxorubicin (Colo 320 cells): interacted in a synergistic manner

CC(C)[C@@H](C)/C=C/[C@@H](C)[C@H]1CC[C@H]2C3=CC=C4C[C@@H](O)CC[C@]4(C)[C@H]3CC[C@]12C [Ergosterol]
IC50 [12]: 4.9 µM
IC50 [13]: 6.5 µM

COC(=O)C[C@@](C)(O)CC(=O)O[C@@H]1C[C@]2(C)C3=C(C(=O)C[C@H]2C(C)(C)[C@H]1OC(C)=O)[C@]1(C)CC[C@H]([C@H](C)CCC(=O)O)[C@@]1(C)CC3 [Compound 8, pholiol S]
IC50 (MCF-7 [2]): 43 µM
IC50 (A549 [3]): 83.7 µM
IC50 at 24 h (in vitro): 55.3 µM
IC50 (Colo 320 [4]): 57.5 µM
RR (relative resistance ratio) (B/A) (Colo 320 [4]): 1.0
IC50 (Colo 205 [5]): 57.5 µM
Selectivity to cancerous cell lines over normal cells (treated cancer cells): did not display selectivity
IC50 (MCF-7 [6]): 35.3 µM
IC50 (Colo 205 [7]; Homo sapiens, COLO 205, 72 h): 59.9 µM
IC50 (Colo 320 [8]): 68.5 µM
IC50 (MRC-5): > 100 µM
IC50 (A549 [9]): 89.8 µM

pholiol A
p-glycoprotein (ABCB1) efflux pump inhibitory activity [11]: inhibitory activity was found

COC(=O)C[C@@](C)(O)CC(=O)O[C@@H]1C[C@]2(C)C3=C(CC[C@H]2C(C)(C)[C@H]1OC(C)=O)[C@]1(C)CC[C@H]([C@H](C)CCC(=O)C(C)(C)O)[C@@]1(C)[C@H](O)C3 [pholiol D]
Drug interaction with doxorubicin (Colo 320 cells): interacted in a synergistic manner

COC(=O)CC(C)(O)CC(=O)OC1CC2(C)C3=C(C(=O)CC2C(C)(C)C1OC(C)=O)C1(C)CCC(C(C)CCC(=O)C(C)(C)O)C1(C)CC3O (stereo not drawn) [Compound 2, pholiol M]
Cytotoxic activity IC50 MCF-7 Mean (MCF-7 [1]): did not show a cytotoxic effect
IC50 (MCF-7 [2]): > 100 µM
IC50 (A549 [3]): 58.1 µM
IC50 at 24 h (in vitro): > 100 µM
IC50 (Colo 320 [4]): 67.2 µM
RR (relative resistance ratio) (B/A) (Colo 320 [4]): 1.87
IC50 (Colo 205 [5]): 35.9 µM
IC50 (MCF-7 [6]): 2.48 µM
Selectivity index (SI), MCF-7 (MCF-7 [6]): > 40
IC50 (Colo 205 [7]; Homo sapiens, COLO 205, 72 h): 23.9 µM
Selectivity index (SI), Colo 205 (Colo 205 [7]): > 4.18
IC50 (Colo 320 [8]): 32.5 µM
IC50 (MRC-5): > 100 µM
IC50 (A549 [9]): > 100 µM

Pholiol F
IC50 (5-LOX): 194 µM
IC50 (COX-2): 440 µM
